According to PMC2788676 (Journal of medicinal chemistry, 2009):

Key:
[1] = molecular target: human μ-opiate receptor (Homo sapiens, UniProt P35372); experiment: [35S]GTP-γ-S functional binding assay, CHO hMOR cells; type: biochemical; settings: for efficacy as μ-agonist (in words): [35S]GTP-γ-S functional assay; for Emax: read-out: μ-Agonism Emax %
[2] = molecular target: μ-opioid receptor; settings: read-out: μ-opioid receptor Ki; cited from earlier work
[3] = molecular target: δ-opiate receptor (Homo sapiens, UniProt P41143); experiment: [3H]DADLE opioid receptor binding, transfected CHO cells; settings: relative to μ Ki
δ-opiate receptor, sequence (P41143 whole entry): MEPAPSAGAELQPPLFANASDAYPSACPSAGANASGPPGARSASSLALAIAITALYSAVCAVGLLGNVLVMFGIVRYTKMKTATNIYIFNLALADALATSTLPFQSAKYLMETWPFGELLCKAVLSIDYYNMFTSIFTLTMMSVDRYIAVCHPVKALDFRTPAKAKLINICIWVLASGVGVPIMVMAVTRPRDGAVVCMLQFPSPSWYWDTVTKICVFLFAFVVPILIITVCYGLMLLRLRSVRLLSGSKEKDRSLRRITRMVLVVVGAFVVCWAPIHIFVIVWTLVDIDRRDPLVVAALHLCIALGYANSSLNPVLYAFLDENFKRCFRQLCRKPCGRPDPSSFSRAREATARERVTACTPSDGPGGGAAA

[4] = molecular target: κ-opiate receptor (Homo sapiens, UniProt P41145); experiment: [3H]U69,593 opioid receptor binding, transfected CHO cells; settings: relative to μ Ki
κ-opiate receptor, sequence (P41145 whole entry): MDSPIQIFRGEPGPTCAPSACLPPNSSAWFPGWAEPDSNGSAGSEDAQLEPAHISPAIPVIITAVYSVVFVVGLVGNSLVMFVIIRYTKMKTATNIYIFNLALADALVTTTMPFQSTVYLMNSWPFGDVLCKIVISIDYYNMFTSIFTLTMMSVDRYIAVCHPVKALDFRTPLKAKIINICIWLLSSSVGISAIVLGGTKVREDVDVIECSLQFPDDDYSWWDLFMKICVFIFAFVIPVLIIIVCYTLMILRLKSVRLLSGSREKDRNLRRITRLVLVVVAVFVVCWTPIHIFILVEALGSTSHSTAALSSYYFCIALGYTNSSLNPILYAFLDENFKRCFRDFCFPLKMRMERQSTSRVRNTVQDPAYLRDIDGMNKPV

human μ-opiate receptor, sequence (P35372 whole entry): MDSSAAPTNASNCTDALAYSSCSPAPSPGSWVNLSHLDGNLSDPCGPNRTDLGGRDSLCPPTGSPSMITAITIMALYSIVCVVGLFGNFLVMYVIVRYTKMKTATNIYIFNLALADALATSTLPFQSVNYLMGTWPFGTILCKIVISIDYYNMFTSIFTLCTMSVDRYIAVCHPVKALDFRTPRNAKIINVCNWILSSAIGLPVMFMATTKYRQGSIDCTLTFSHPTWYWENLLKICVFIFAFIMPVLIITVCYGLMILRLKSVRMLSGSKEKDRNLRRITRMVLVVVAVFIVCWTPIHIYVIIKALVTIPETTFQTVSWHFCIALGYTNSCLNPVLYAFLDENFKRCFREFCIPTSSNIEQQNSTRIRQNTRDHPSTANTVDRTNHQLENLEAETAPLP

For CC[C@@]12CCN(C)C[C@@H]1Oc1ccc(O)cc12 [Compound 21, 4aS,9aR-(−)-cis-4a-Ethyl-2-methyl-1,2,3,4,4a,9a-hexahydrobenzofuro[2,3-c]pyridin-6-ol], the EC50 [1] was 241 ± 47 nM, the “efficacy as μ-agonist (in words)” value [1] was “little efficacy” and the Emax [1] was 45 ± 2%.
CC[C@@]12CCNC[C@@H]1Oc1ccc(O)cc12 [Compound 20, 4aS,9aR-(−)-cis-4a-Ethyl-1,2,3,4,4a,9a-hexahydrobenzofuro[2,3-c]pyridin-6-ol] showed an EC50 [1] of 150 ± 25 nM, a Kb [1] of 95 nM and an Emax [1] of 97 ± 4%.
CC[C@@]12CCN(C[C@H](O)c3ccccc3)C[C@@H]1Oc1ccc(O)cc12 [Compound 24, 4aS,9aR,2′R-(−)-cis-2-(2′-Hydroxy-2-phenylethyl)-4a-ethyl-1,2,3,4,4a,9a-hexahydrobenzofuro[2,3-c]pyridin-6-ol] showed an EC50 [1] of 480 ± 90 nM and an Emax [1] of 36 ± 2%.
CC[C@@]12CCN(C[C@@H](O)c3ccccc3)C[C@@H]1Oc1ccc(O)cc12 [Compound 23, 4aS,9aR,2′S-(−)-cis-2-(2′-Hydroxy-2-phenylethyl)-4a-ethyl-1,2,3,4,4a,9a-hexahydrobenzofuro[2,3-c]pyridin-6-ol] showed an EC50 [1] of 560 ± 60 nM and an Emax [1] of 100 ± 3%.
In the case of Oc1ccc2c(c1)[C@]13CCC[C@H](C1)NC[C@@H]3O2 (single isomer, unassigned) [para-d isomer, (3R*,6aS*11aR*)-1,3,4,5,6,11a-hexahydro-2H-3,6a-methanobenzofuro[2,3-c]azocin-8-ol], the Ki [2] is given as 1220 nM.
With CC[C@@]12CCN(CCc3ccccc3)C[C@@H]1Oc1ccc(O)cc12 [Compound 22, 4aS,9aR-(−)-cis-4a-Ethyl-2-(2-phenylethyl)-1,2,3,4,4a,9a-hexahydrobenzofuro[2,3-c]pyridin-6-ol] the “fold less affinity at the δ-receptor than at the μ-receptor” value [3] was “more than 100 fold”, the “fold less affinity at the κ-receptor than at the μ-receptor” value [4] was “more than 100 fold” and the EC50 [1] was 24 ± 6 nM. For the same molecule, the “efficacy as μ-agonist (in words)” value [1] was “potent agonist” and the Emax [1] was 84 ± 4%.
